How the values were obtained:
LXR signaling pathway = assay: Western blot of LXR and its target genes and PCNA in mouse liver (Example 3); format: in vivo, C57BL/6 mice; conditions: 5 mg/kg i.v.
Experimental: Cayman Chemical, Ann Arbor, Mich.); […] […] Metabolism. (Accepted)]. […] Cell lysates were prepared from frozen mouse liver tissues. Total proteins, 100 μg, were separated by 10% SDS-PAGE, and transferred to PVDF membrane (Millipore, Eschbom, Germany). […] Louis, Mo.) was used as a loading control. The immunoreactive bands were detected by Fujifilm Medical System (Fujifilm, Stamford, Conn.) and quantified by Advanced Image Data Analyzer (Aida Inc., Straubenhardt, Germany).

[1] = test system: primary rat hepatocytes (PRH); assay: Western blot in primary rat hepatocytes (Example 4); format: cell-based; conditions: Ad-Control-infected group, T0901317 1.5 μM or 25HC 3 μM
Experimental: PRH were prepared as previously described (24). Briefly, parenchymal cells (3.5×10^6) were inoculated in 60-mm plastic Petri dishes coated with rat tail collagen. The plates contained 3 ml of Williams E culture media supplemented with thyroxine (1 μM), dexamethasone (0.1 μM), and penicillin (100 units/ml). Three hours after plating, culture medium was removed and fresh medium was added. Cells were then infected with Ad-SULT2B1b at a multiplicity (MOI) of 10 plaque forming units/cell (pfu/cell) or 100 nM of siRNA-SULT2B1b (ON-TARGET plus siRNA of rat SULT2B1b, Thermo Scientific Dharmacon, Lafayette, Colo.) as previously described (31). The Ad-Control and siRNA-Control (ON-TARGET plus negative control siRNA) were used as controls, respectively. Twenty four hours after infection, cells were treated with T0901317 (1.5 μM) or 25HC (3 μM) for another 24 hours. The cells were harvested at the timepoints as indicated in the text.
Cell lysates were prepared from frozen mouse liver tissues or PRH, and 50 μg of the total proteins were separated by 10% SDS-PAGE, transferred to polyvinylidene difluoride membrane (Millipore, Eschbom, Germany). Specific protein was probed with specific antibodies against PCNA, human SULT2B1b (Santa Cruz Biotechnology, Santa Cruz, Calif.), LXRα (Abcam, Cambridge, Mass.), ATP-binding cassette transporters 1 (ABCA1) (Abcam, Cambridge, Mass.), and SREBP1 (Santa Cruz Biotechnology, Santa Cruz, Calif.). β-Actin (Sigma-Aldrich, St. Louis, Mo.) was used as a loading control. Western analysis was performed by methods known in the art.

## O=S(=O)(c1ccccc1)N(CC(F)(F)F)c1ccc(C(O)(C(F)(F)F)C(F)(F)F)cc1 [T0901317, reference compound]
LXR signaling pathway; day 2
  25HC3S-induced PCNA expression: significantly repressed
LXR signaling pathway; day 2, presence and absence of 25HC3S, vs vehicle
  expressions of LXR target genes ABCA1 and SREBP-1c: induced
[1]
  LXR response gene expressions: significantly increased
  PCNA expression: decreased

— patent US9034859B2, “Sulfated oxysterol and oxysterol sulfation by hydroxysterol sulfotransferase promote lipid homeostasis and liver proliferation” (Virginia Commonwealth University, priority 2011, dated 2015)
